From patent US10131652B2, “Pyrimidinyloxy benzene derivatives as herbicides” (E. I. DU PONT DE NEMOURS AND COMPANY, priority 2014, dated 2018)
Like-named read-outs stand apart in the source and are kept apart here.

Key:
Test in all cases: Test B pre-/postemergence plant response
Type in all cases: in vivo
[1] = test system: corn (Zea mays); conditions: Zea mays, 240 h; for Corn plant response rating (crop injury, 0 = no effect, 100 = complete kill) at 125 g/ha: 125 g ai/ha; for Corn plant response rating (crop injury, 0 = no effect, 100 = complete kill) at 500 g/ha: 500 g ai/ha
How it was run: (§1)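 Visual injury rating, 0 (no effect) to 100 (complete control), vs untreated controls after ~10 d greenhouse. Pre: directed soil spray after planting in loam/sand. Post: plants 2–10 cm, 1–2 leaf stage. Compound in non-phytotoxic solvent plus surfactant.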

[2] = test system: giant foxtail (Setaria faberii); conditions: Setaria faberi, 240 h, read-out: Plant response rating, Foxtail, Giant; for pest or weed control at 125 g/ha: 125 g ai/ha; for pest or weed control at 500 g/ha: 500 g ai/ha
How it was run: as §1

[3] = test system: barnyardgrass (Echinochloa crus-galli); conditions: Echinochloa crus-galli, 240 h, read-out: Plant response rating, Barnyardgrass; for pest or weed control at 125 g/ha: 125 g ai/ha; for pest or weed control at 500 g/ha: 500 g ai/ha
How it was run: as §1

[4] = test system: pigweed (Amaranthus retroflexus); conditions: Amaranthus retroflexus, 240 h, read-out: Plant response rating, Pigweed; for pest or weed control at 125 g/ha: 125 g ai/ha; for pest or weed control at 500 g/ha: 500 g ai/ha
How it was run: as §1

[5] = test system: wheat (Triticum aestivum); conditions: Triticum aestivum, 240 h, read-out: Plant response rating, Wheat; for plant injury at 125 g/ha: 125 g ai/ha; for plant injury at 500 g/ha: 500 g ai/ha
How it was run: as §1

[6] = post-emergence, postemergence, 0 to 100 scale, 0 no effect, 100 complete control
[7] = post-emergence, Postemergence, 0 to 100 scale (0 no effect, 100 complete control)
[8] = pre-emergence, Preemergence, 0 to 100 scale where 0 is no effect and 100 is complete control

## FC(F)(F)c1ccc(-c2ccccc2Oc2ncc(Cl)cn2)nc1 [Compound 27, 5-chloro-2-[2-[5-(trifluoromethyl)-2-pyridinyl]phenoxy]pyrimidine]
[1]; [6]
  Corn plant response rating (crop injury, 0 = no effect, 100 = complete kill) at 125 g/ha: 0%
[1]; [7]
  Corn plant response rating (crop injury, 0 = no effect, 100 = complete kill) at 500 g/ha: 30%
[1]; [8]
  Corn plant response rating (crop injury, 0 = no effect, 100 = complete kill) at 125 g/ha: 0%
  Corn plant response rating (crop injury, 0 = no effect, 100 = complete kill) at 500 g/ha: 0%
[2]; [6]
  pest or weed control at 125 g/ha: 20%
[2]; [7]
  pest or weed control at 500 g/ha: 70%
[2]; [8]
  pest or weed control at 125 g/ha: 60%
  pest or weed control at 500 g/ha: 90%
[3]; [6]
  pest or weed control at 125 g/ha: 20%
[3]; [7]
  pest or weed control at 500 g/ha: 50%
[3]; [8]
  pest or weed control at 125 g/ha: 10%
  pest or weed control at 500 g/ha: 80%
[4]; [6]
  pest or weed control at 125 g/ha: 50%
[4]; [7]
  pest or weed control at 500 g/ha: 100%
[4]; [8]
  pest or weed control at 125 g/ha: 80%
  pest or weed control at 500 g/ha: 100%
[5]; [6]
  plant injury at 125 g/ha: 0%
[5]; [7]
  plant injury at 500 g/ha: 0%
[5]; [8]
  plant injury at 125 g/ha: 0%
  plant injury at 500 g/ha: 0%
